These results are taken from US20150218212A1, “FLUORINATED EPOXYKETONE-BASED TETRAPEPTIDE COMPOUNDS AND USES THEREOF AS PROTEASOME INHIBITORS” (FLUORINOV PHARMA INC., priority 2012, published 2015).

Like-named read-outs stand apart in the source and are kept apart here.

Type in all cases: in vivo, NOD/SCID mice
Assay [1] concerns the target T1, proteasome Caspase-like (C-L) activity (Mus musculus, UniProt P70195+Q60692).
T1 construct: RBCs were lysed with assay lysis buffer and incubated on ice for 30 minutes; from tissue; host or cells: red blood cells of NOD/SCID mice
The assay is described as follows: Pharmacodynamic proteasome activity in murine red blood cells, C-L. The conditions noted are these: iv, mice, 2 mg/kg i.v., time 0, read-out: Caspase-like (C-L) mean residual activity relative to vehicle treated controls. Here is the method:
(§1) Cells were harvested by centrifugation at 1,200 rpm at room temperature. Cell pellets were washed with PBS (phosphate buffered saline) and lysed with assay lysis buffer (50 mM HEPES (N-2-hydroxyethylpiperazine-N′-2-ethanesulfonic acid), pH 7.5; 150 mM NaCl; 1% Triton X-100; 2 mM ATP). Cell lysates were incubated on ice for 30 minutes, mixed by vortex every 5 minutes, and then centrifuged at 12,000 g for 10 minutes. The supernatant was transferred to a 96-well plate. For each assay, 10 μg of total protein were incubated for 1 hour at 37° C. with increasing concentrations (1 nM to 10 μM) of test compound diluted in assay buffer (50 mM tris-HCl (tris(hydroxymethyl)aminomethane-HCl), pH 7.5; 150 mM NaCl). DMSO alone was used as a control in every assay plate. After incubation, a specific fluorogenic proteasome substrate was added to each assay reaction at a final concentration of 40 μM in a total volume of 100 μL. N-Succinyl-Leu-Leu-Val-Tyr-7-amino-4-methylcoumarin (Suc-Leu-Leu-Val-Tyr-AMC) was used for measuring chymotrypsin-like (CT-L) activity, t-butoxycarbonyl-Leu-Arg-Arg-7-amino-4-methylcoumarin (Boc-Leu-Arg-Arg-AMC) for trypsin-like (T-L) activity, and benzyloxycarbonyl-L-leucyl-L-leucyl-L-glutamyl-7-amino-4-methylcoumarin (Z-Leu-Leu-Glu-AMC) for caspase-like (C-L) activity. The excitation wavelength was set at 360 nm and the fluorescence emission wavelength of AMC was detected at 460 nm. The fluorescence of free AMC released during the enzymatic reaction was measured with a SpectraMax M5 fluorescent spectrophotometric plate reader (Molecular Devices, Sunnyvale, Calif.). AMC release rate was measured at 37° C. in a kinetic mode, recording every 5 minutes for 30 minutes. Experiments were performed in triplicate and repeated at least twice.
(§2) All mouse experiments were performed in accordance with approval from the Ontario Cancer Institute institutional animal review board. Five- to six-week-old male non-obese diabetic/severe combined immunodeficient (NOD/SCID) mice were grouped randomly (n=3 mice per group). Mice were administered vehicle (5% DMSO, 20% Cremophor) or compounds of Formula I at different doses either intravenously or by oral gavage, and venous blood samples (20-50 μL) were collected from each mouse over 24 hours. Blood samples were mixed with heparin (APP Pharmaceuticals; Schaumburg, Ill.) in 0.5 mL tubes in accordance with the manufacturer's instructions. After centrifugal separation at 3,000 g for 10 minutes, red blood cells (RBCs) in the bottom layer were transferred into a new tube and stored at −70° C. until use. RBCs were lysed with assay lysis buffer and incubated on ice for 30 minutes, mixing by vortex every 5 minutes, and then centrifuged at 12,000 g for 10 minutes. The supernatant was transferred to a 96-well plate and proteasome activity was measured as described above for tumor cell lysates.
(§3) Proteasome subunit activity (Chymotrypsin-like, Trypsin-like, Caspase-like, CT-L, T-L, C-L, respectively) were monitored over the course of 24 hrs following […] administration of representative compounds of Formula I. NOD/SCID mice were treated with compounds of Formula I (2 mg/kg by iv administration) or vehicle control and carfilzomib for up to 24 hours, as described above. Table 9 summarizes the data on pharmacodynamic activity of representative compounds of Formula I following a dose of 2 mg/kg intravenous (i.v) administration to mice. Data are presented as mean residual activity (SEM) relative to vehicle treated controls.

Assay [2] concerns the target T2, proteasome Chymotrypsin-like (CT-L) activity (Mus musculus, UniProt O09061+O55234).
T2 construct: RBCs were lysed with assay lysis buffer and incubated on ice for 30 minutes; from tissue; host or cells: red blood cells of NOD/SCID mice
The assay is described as follows: Pharmacodynamic proteasome activity in murine red blood cells, CT-L. To be noted: iv, mice, 2 mg/kg i.v. Here is the method: as §1, §2, §3

Assay [3] has as its target T3, proteasome Trypsin-like (T-L) activity (Mus musculus, UniProt P70195+Q9R1P1).
T3 construct: RBCs were lysed with assay lysis buffer and incubated on ice for 30 minutes; from tissue; host or cells: red blood cells of NOD/SCID mice
The assay is described as follows: Pharmacodynamic proteasome activity in murine red blood cells, T-L. The conditions noted are these: iv, mice, 2 mg/kg i.v., time 0, read-out: Trypsin-like (T-L) mean residual activity relative to vehicle treated controls. On the procedure:
as §1, §2, §3

`CC(C)C[C@H](NC(=O)[C@H](CCc1ccccc1)NC(=O)CN1CCOCC1)C(=O)N[C@@H](Cc1ccccc1)C(=O)N[C@@H](CC(C)C)C(=O)[C@@]1(C)CO1` [Carfilzomib, carfilzomib, reference compound]: the remaining activity at 2 mg/kg in assay [1] was 100%; in assay [2] (30 min, read-out: Chymotrypsin-like (CT-L) mean residual activity relative to vehicle treated controls), 48%; in assay [2] (24 hrs, read-out: Chymotrypsin-like (CT-L) mean residual activity relative to vehicle treated controls), 46%; in assay [2] (time 0, read-out: Chymotrypsin-like (CT-L) mean residual activity relative to vehicle treated controls), 100%; in assay [3] it was 100%.
